Source: US20220289715A1, “PESTICIDALLY ACTIVE PYRAZINE-AMIDE COMPOUNDS” (priority 2019, published 2022)

What was measured:
Format in all cases: in vivo
[1] = system: Myzus persicae (Green Peach Aphid); assay: Example B10: Myzus persicae, sucrose solution, 96-well; conditions: 120 h, application rate of 50 ppm, 5 days after infestation
Text: Example B10: Myzus persicae (Green Peach Aphid)
Test compounds prepared from 10,000 ppm DMSO stock solutions were applied by a liquid handling robot into 96-well microtiter plates and mixed with a sucrose solution. Parafilm was stretched over the 96-well microtiter plate and a plastic stencil with 96 holes was placed onto the plate. Aphids were sieved into the wells directly onto the Parafilm. The infested plates were closed with a gel blotting card and a second plastic stencil and then turned upside down. The samples were assessed for mortality 5 days after infestation.

[2] = system: Euschistus heros (Neotropical Brown Stink Bug); assay: Example B2: Euschistus heros, spray on soybean leaves; conditions: 120 h, application rate of 200 ppm, N2 nymphs, 5 days after infestation, read-out: control in at least one of the two categories (mortality or growth inhibition)
Method: Example B2: Euschistus heros (Neotropical Brown Stink Bug)
Soybean leaves on agar in 24-well microtiter plates were sprayed with aqueous test solutions prepared from 10,000 ppm DMSO stock solutions. After drying the leaves were infested with N2 nymphs. The samples were assessed for mortality and growth inhibition in comparison to untreated samples 5 days after infestation.
The following compounds gave an effect of at least 80% control in at least one of the two categories (mortality or growth inhibition) at an application rate of 200 ppm: […]

[3] = system: Chilo suppressalis (Striped Rice Stemborer); assay: Example B3: Chilo suppressalis, artificial diet; conditions: 144 h, application rate of 200 ppm, L2 larvae, 6 days after infestation, read-out: control in at least one of the three categories (mortality, anti-feedant effect, or growth inhibition)
Method in brief: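 Artificial diet was treated with aqueous dilutions made from 10,000 ppm DMSO stocks, dried, and infested with L2 larvae (6-8 per well). After 6 days, mortality, anti-feeding effect and growth inhibition were scored against untreated samples. Control was recorded when any one category exceeded the untreated sample.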

[4] = system: Myzus persicae (Green Peach Aphid); assay: Example B5: Myzus persicae, intrinsic activity; conditions: 120 h, test rate of 12 ppm, 5 days after infestation
Text: Example B5: Myzus persicae (Green Peach Aphid). Intrinsic Activity
Test compounds prepared from 10,000 ppm DMSO stock solutions were applied by pipette into 24-well microtiter plates and mixed with sucrose solution. The plates were closed with a stretched Parafilm. A plastic stencil with 24 holes was placed onto the plate and infested pea seedlings were placed directly on the Parafilm. The infested plate was closed with a gel blotting paper and another plastic stencil and then turned upside down. The samples were assessed for mortality 5 days after infestation.

[5] = system: Plutella xylostella (Diamond Back Moth); assay: Example B4: Plutella xylostella, artificial diet, 24-well; conditions: 192 h, application rate of 200 ppm, eggs, 8 days after infestation, read-out: control in at least one of the two categories (mortality or growth inhibition)
Method in brief: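 Artificial diet in 24-well plates treated with aqueous dilutions of DMSO stocks, dried, then infested with diamondback moth eggs. Mortality and growth inhibition scored against untreated samples 8 days after infestation.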

[6] = system: Spodoptera littoralis (Egyptian Cotton Leaf Worm); assay: Example B7: Spodoptera littoralis, uptake by lettuce roots from agar; conditions: 144 h, test rate of 12.5 ppm, absorbed by lettuce roots, eggs, 6 days after infestation, read-out: control in at least one of the three categories (mortality, anti-feeding, or growth inhibition)
Text: Example B7: Spodoptera littoralis (Egyptian Cotton Leaf Worm)
Test compounds were applied by pipette from 10,000 ppm DMSO stock solutions into 24-well plates and mixed with agar. Lettuce seeds were placed onto the agar and the multi well plate was closed by another plate which contained also agar. After 7 days the compound was absorbed by the roots and the lettuce grew into the lid plate. The lettuce leaves were then cut off into the lid plate. Spodoptera eggs were pipetted through a plastic stencil onto a humid gel blotting paper and the lid plate was closed with it. The samples were assessed for mortality, anti-feedant effect and growth inhibition in comparison to untreated samples 6 days after infestation.
The following compounds gave an effect of at least 80% control in at least one of the three categories (mortality, anti-feeding, or growth inhibition) at a test rate of 12.5 ppm: […]

[7] = system: Plutella xylostella (Diamondback Moth); assay: Example B9: Plutella xylostella, artificial diet, 96-well; conditions: 216 h, application rate of 500 ppm, eggs/L1 larvae, 9 days after infestation
Method in brief: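 Test solutions made from 10,000 ppm DMSO stocks were applied to artificial diet in 96-well plates. After drying, ~30 eggs per well were placed on a suspended netted lid so hatching L1 larvae dropped onto the diet. Mortality was scored 9 days after infestation.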

[8] = system: Spodoptera littoralis (Egyptian Cotton Leaf Worm); assay: Example B6: Spodoptera littoralis, spray on cotton leaf discs; conditions: foliar, 72 h, application rate of 200 ppm, L1 larvae, 3 days after infestation, read-out: control in at least one of the three categories (mortality, anti-feedant effect, or growth inhibition)
Method in brief: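 Leaf discs on agar sprayed with aqueous solutions made from 10,000 ppm DMSO stocks, then infested after drying with five L1 larvae. Mortality, anti-feeding and growth inhibition scored against untreated samples 3 days after infestation.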

[9] = system: Diabrotica balteata (Corn Root Worm); assay: Example B1: Diabrotica balteata, spray on maize sprouts; conditions: 96 h, application rate of 200 ppm, L2 larvae, 4 days after infestation, read-out: control in at least one of the two categories (mortality or growth inhibition)
Method in brief: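 Maize sprouts on agar were sprayed with aqueous dilutions of DMSO stock solutions, dried, then infested with L2 larvae (6–10 per well). Mortality and growth inhibition were scored against untreated controls 4 days after infestation; test rate 200 ppm.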

[10] = system: Tetranychus urticae (Two-Spotted Spider Mite); assay: Example B8: Tetranychus urticae, feeding/contact activity; conditions: 192 h
Method: Example B8: Tetranychus urticae (Two-Spotted Spider Mite): Feeding/Contact Activity
Bean leaf discs on agar in 24-well microtiter plates were sprayed with aqueous test solutions prepared from 10,000 ppm DMSO stock solutions. After drying the leaf discs were infested with a mite population of mixed ages. The samples were assessed for mortality on mixed population (mobile stages) 8 days after infestation.

CC(NC(=O)c1cc(OCC(F)F)cc(C(F)(F)F)c1)c1nccnc1-n1nccn1 (centres unmarked) [Compound P12, 3-(2,2-difluoroethoxy)-N-[1-[3-(triazol-2-yl)pyrazin-2-yl]ethyl]-5-(trifluoromethyl)benzamide]
≥ 80%: mortality at 50 ppm [1] | percent control (mortality or growth inhibition) at 200 ppm [2] | percent control (mortality, anti-feedant effect or growth inhibition) at 200 ppm [3] | mortality at 12 ppm [4] | percent control (mortality or growth inhibition) at 200 ppm [5] | percent control (mortality, anti-feeding or growth inhibition) at 12.5 ppm [6] | mortality at 500 ppm [7] | percent control (mortality, anti-feedant effect or growth inhibition) at 200 ppm [8]

CC(NC(=O)c1cc(C(F)(F)F)cc(C(C)(C)C#N)c1)c1nccnc1-n1nccn1 (centres unmarked) [Compound P6, 3-(1-cyano-1-methyl-ethyl)-N-[1-[3-(triazol-2-yl)pyrazin-2-yl]ethyl]-5-(trifluoromethyl)benzamide]
≥ 80%: mortality at 50 ppm [1] | percent control (mortality or growth inhibition) at 200 ppm [2] | percent control (mortality, anti-feedant effect or growth inhibition) at 200 ppm [3] | mortality at 12 ppm [4] | percent control (mortality or growth inhibition) at 200 ppm [5] | percent control (mortality or growth inhibition) at 200 ppm [9] | mortality at 500 ppm [7] | percent control (mortality, anti-feedant effect or growth inhibition) at 200 ppm [8]

C[C@H](NC(=O)c1cc(OC(F)F)cc(C(F)(F)F)c1)c1nccnc1-n1nccn1 [Compound P39, 3-(difluoromethoxy)-N-[(1S)-1-[3-(triazol-2-yl)pyrazin-2-yl]ethyl]-5-(trifluoromethyl)benzamide]
≥ 80%: percent control (mortality or growth inhibition) at 200 ppm [2] | percent control (mortality, anti-feedant effect or growth inhibition) at 200 ppm [3] | mortality at 12 ppm [4] | percent control (mortality or growth inhibition) at 200 ppm [5] | percent control (mortality, anti-feeding or growth inhibition) at 12.5 ppm [6] | percent control (mortality or growth inhibition) at 200 ppm [9] | percent control (mortality, anti-feedant effect or growth inhibition) at 200 ppm [8]

CC(NC(=O)c1cc(Cl)cc(Br)c1)c1nccnc1-n1nccn1 (centres unmarked) [Compound P35, 3-bromo-5-chloro-N-[1-[3-(triazol-2-yl)pyrazin-2-yl]ethyl]benzamide]
≥ 80%: mortality at 50 ppm [1] | percent control (mortality, anti-feedant effect or growth inhibition) at 200 ppm [3] | percent control (mortality or growth inhibition) at 200 ppm [5] | percent control (mortality or growth inhibition) at 200 ppm [9] | mortality at 200 ppm [10] | mortality at 500 ppm [7] | percent control (mortality, anti-feedant effect or growth inhibition) at 200 ppm [8]

CC(NC(=O)c1cc(C(F)F)cc(C(F)(F)F)c1)c1nccnc1-n1nccn1 (centres unmarked) [Compound P3, 3-(difluoromethyl)-N-[1-[3-(triazol-2-yl)pyrazin-2-yl]ethyl]-5-(trifluoromethyl)benzamide]
≥ 80%: mortality at 50 ppm [1] | percent control (mortality or growth inhibition) at 200 ppm [2] | percent control (mortality, anti-feedant effect or growth inhibition) at 200 ppm [3] | mortality at 12 ppm [4] | percent control (mortality or growth inhibition) at 200 ppm [5] | percent control (mortality or growth inhibition) at 200 ppm [9] | mortality at 500 ppm [7] | percent control (mortality, anti-feedant effect or growth inhibition) at 200 ppm [8]
